Test results published in PubChem BioAssay AID2060492 (Molecular Pharmacology Branch, DTP, NCI, 2025).

System: 695427-040-R-J1-PDC complex spheroids, viability percent T/C
Experiment: Anticancer human tumor 695427-040-R-J1-PDC patient-derived colon adenocarcinoma cell line growth inhibition [GQUAD]
Settings: for IC50: curve of first compound; for viability, T/C: stronger effect = lower value
In short: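 Viability of tumor cells grown as complex spheroids with endothelial and stromal cells, exposed to drug combinations. Top concentration at or near clinical Cmax (else 10 microM), diluted in half-log increments.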

[1] = second compound 0.0316 µM, first compound 0.0316 µM
[2] = second compound 0.0316 µM, first compound 0.1 µM
[3] = second compound 0.0316 µM, first compound 0.316 µM
[4] = second compound 0.0316 µM, first compound 1 µM
[5] = second compound 0.0316 µM, first compound 3.16 µM
[6] = second compound 0.0316 µM, first compound 10 µM
[7] = second compound 0.1 µM, first compound 0.0316 µM
[8] = second compound 0.1 µM, first compound 0.1 µM
[9] = second compound 0.1 µM, first compound 0.316 µM
[10] = second compound 0.1 µM, first compound 1 µM
[11] = second compound 0.1 µM, first compound 3.16 µM
[12] = second compound 0.1 µM, first compound 10 µM
[13] = second compound 0.316 µM, first compound 0.0316 µM
[14] = second compound 0.316 µM, first compound 0.1 µM
[15] = second compound 0.316 µM, first compound 0.316 µM
[16] = second compound 0.316 µM, first compound 1 µM
[17] = second compound 0.316 µM, first compound 3.16 µM
[18] = second compound 0.316 µM, first compound 10 µM
[19] = second compound 1 µM, first compound 0.0316 µM
[20] = second compound 1 µM, first compound 0.1 µM
[21] = second compound 1 µM, first compound 0.316 µM
[22] = second compound 1 µM, first compound 1 µM
[23] = second compound 1 µM, first compound 3.16 µM
[24] = second compound 1 µM, first compound 10 µM
[25] = second compound 3.16 µM, first compound 0.0316 µM
[26] = second compound 3.16 µM, first compound 0.1 µM
[27] = second compound 3.16 µM, first compound 0.316 µM
[28] = second compound 3.16 µM, first compound 1 µM
[29] = second compound 3.16 µM, first compound 3.16 µM
[30] = second compound 3.16 µM, first compound 10 µM
[31] = second compound 10 µM, first compound 0.0316 µM
[32] = second compound 10 µM, first compound 0.1 µM
[33] = second compound 10 µM, first compound 0.316 µM
[34] = second compound 10 µM, first compound 1 µM
[35] = second compound 10 µM, first compound 3.16 µM
[36] = second compound 10 µM, first compound 10 µM
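Note: spheroids exposed to compounds for seven days before readout.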

SMILES: COc1cccc2c1C(=O)c1c(O)c3c(c(O)c1C2=O)CC(O)(C(=O)CO)CC3OC1CC(N)C(O)C(C)O1 (stereo not drawn) + Cc1[nH]c2ccc(F)cc2c1-c1nc2c3cccnc3c3ncccc3c2[nH]1
- IC50 (second compound 0.0316 µM): > 10 µM
- IC50 (second compound 0.1 µM): > 10 µM
- IC50 (second compound 0.316 µM): > 10 µM
- IC50 (second compound 1 µM): > 10 µM
- IC50 (second compound 3.16 µM): 4.85 µM
- IC50 (second compound 10 µM): 5.56 µM
- viability, T/C [1]: 98.6%
- viability, T/C [2]: 88.4%
- viability, T/C [3]: 96.9%
- viability, T/C [4]: 87.1%
- viability, T/C [5]: 60.6%
- viability, T/C [6]: 50.7%
- viability, T/C [7]: 104%
- viability, T/C [8]: 98.8%
- viability, T/C [9]: 91.3%
- viability, T/C [10]: 71.9%
- viability, T/C [11]: 74.4%
- viability, T/C [12]: 48.9%
- viability, T/C [13]: 95.2%
- viability, T/C [14]: 77.9%
- viability, T/C [15]: 87.1%
- viability, T/C [16]: 73.8%
- viability, T/C [17]: 71.5%
- viability, T/C [18]: 49.6%
- viability, T/C [19]: 83%
- viability, T/C [20]: 92.4%
- viability, T/C [21]: 78.8%
- viability, T/C [22]: 72.5%
- viability, T/C [23]: 71.2%
- viability, T/C [24]: 49.6%
- viability, T/C [25]: 59.6%
- viability, T/C [26]: 86.8%
- viability, T/C [27]: 70.4%
- viability, T/C [28]: 59.4%
- viability, T/C [29]: 56.8%
- viability, T/C [30]: 42.5%
- viability, T/C [31]: 65.9%
- viability, T/C [32]: 80.1%
- viability, T/C [33]: 65%
- viability, T/C [34]: 70.9%
- viability, T/C [35]: 62.2%
- viability, T/C [36]: 37%

SMILES: CCc1c2c(nc3ccc(O)cc13)-c1cc3c(c(=O)n1C2)COC(=O)[C@]3(O)CC + CN(C)c1ccc(Nc2c3ccc(NC(=O)CCN4CCCC4)cc3nc3cc(NC(=O)CCN4CCCC4)ccc23)cc1
- IC50 (second compound 0.0316 µM): > 0.316 µM
- IC50 (second compound 0.1 µM): > 0.316 µM
- IC50 (second compound 0.316 µM): > 0.316 µM
- IC50 (second compound 1 µM): > 0.316 µM
- IC50 (second compound 3.16 µM): 0.247 µM
- IC50 (second compound 10 µM): 0.252 µM
- viability, T/C (second compound 0.0316 µM, first compound 0.000999 µM): 104%
- viability, T/C (second compound 0.0316 µM, first compound 0.00316 µM): 94.5%
- viability, T/C (second compound 0.0316 µM, first compound 0.00999 µM): 93.3%
- viability, T/C [1]: 74.7%
- viability, T/C (second compound 0.0316 µM, first compound 0.0999 µM): 70.8%
- viability, T/C [3]: 51.3%
- viability, T/C (second compound 0.1 µM, first compound 0.000999 µM): 108%
- viability, T/C (second compound 0.1 µM, first compound 0.00316 µM): 90.2%
- viability, T/C (second compound 0.1 µM, first compound 0.00999 µM): 85.4%
- viability, T/C [7]: 73.2%
- viability, T/C (second compound 0.1 µM, first compound 0.0999 µM): 68.5%
- viability, T/C [9]: 53.2%
- viability, T/C (second compound 0.316 µM, first compound 0.000999 µM): 103%
- viability, T/C (second compound 0.316 µM, first compound 0.00316 µM): 94%
- viability, T/C (second compound 0.316 µM, first compound 0.00999 µM): 84%
- viability, T/C [13]: 75%
- viability, T/C (second compound 0.316 µM, first compound 0.0999 µM): 64.2%
- viability, T/C [15]: 49.6%
- viability, T/C (second compound 1 µM, first compound 0.000999 µM): 99.2%
- viability, T/C (second compound 1 µM, first compound 0.00316 µM): 89.3%
- viability, T/C (second compound 1 µM, first compound 0.00999 µM): 82.1%
- viability, T/C [19]: 76.1%
- viability, T/C (second compound 1 µM, first compound 0.0999 µM): 66.8%
- viability, T/C [21]: 51%
- viability, T/C (second compound 3.16 µM, first compound 0.000999 µM): 94.2%
- viability, T/C (second compound 3.16 µM, first compound 0.00316 µM): 97.8%
- viability, T/C (second compound 3.16 µM, first compound 0.00999 µM): 85.7%
- viability, T/C [25]: 76.5%
- viability, T/C (second compound 3.16 µM, first compound 0.0999 µM): 64.2%
- viability, T/C [27]: 46.2%
- viability, T/C (second compound 10 µM, first compound 0.000999 µM): 90.2%
- viability, T/C (second compound 10 µM, first compound 0.00316 µM): 88%
- viability, T/C (second compound 10 µM, first compound 0.00999 µM): 71.9%
- viability, T/C [31]: 69.2%
- viability, T/C (second compound 10 µM, first compound 0.0999 µM): 60.7%
- viability, T/C [33]: 46.3%

SMILES: COc1cc(C2c3cc4c(cc3C(OC3OC5COC(C)OC5C(O)C3O)C3COC(=O)C23)OCO4)cc(OC)c1O (stereo not drawn) + CN(C)c1ccc(Nc2c3ccc(NC(=O)CCN4CCCC4)cc3nc3cc(NC(=O)CCN4CCCC4)ccc23)cc1
- IC50 (second compound 0.0316 µM): > 10 µM
- IC50 (second compound 0.1 µM): > 10 µM
- IC50 (second compound 0.316 µM): > 10 µM
- IC50 (second compound 1 µM): > 10 µM
- IC50 (second compound 3.16 µM): > 10 µM
- IC50 (second compound 10 µM): > 10 µM
- viability, T/C [1]: 108%
- viability, T/C [2]: 90.1%
- viability, T/C [3]: 95.7%
- viability, T/C [4]: 97.8%
- viability, T/C [5]: 85.2%
- viability, T/C [6]: 80%
- viability, T/C [7]: 88.1%
- viability, T/C [8]: 91.6%
- viability, T/C [9]: 95.7%
- viability, T/C [10]: 83.5%
- viability, T/C [11]: 89.8%
- viability, T/C [12]: 76.9%
- viability, T/C [13]: 100%
- viability, T/C [14]: 91.5%
- viability, T/C [15]: 88.1%
- viability, T/C [16]: 89.2%
- viability, T/C [17]: 90.5%
- viability, T/C [18]: 76.7%
- viability, T/C [19]: 88.9%
- viability, T/C [20]: 97.4%
- viability, T/C [21]: 94.4%
- viability, T/C [22]: 93.3%
- viability, T/C [23]: 88.1%
- viability, T/C [24]: 72.6%
- viability, T/C [25]: 89.1%
- viability, T/C [26]: 90.9%
- viability, T/C [27]: 96.7%
- viability, T/C [28]: 90.3%
- viability, T/C [29]: 91%
- viability, T/C [30]: 76.5%
- viability, T/C [31]: 87.2%
- viability, T/C [32]: 77.4%
- viability, T/C [33]: 81.2%
- viability, T/C [34]: 80.8%
- viability, T/C [35]: 77.5%
- viability, T/C [36]: 66.4%

SMILES: C=CC(=O)N1CCN(c2nc(=O)n(-c3c(C)ccnc3C(C)C)c3nc(-c4c(O)cccc4F)c(F)cc23)C(C)C1 (stereo not drawn) + CN(C)c1ccc(Nc2c3ccc(NC(=O)CCN4CCCC4)cc3nc3cc(NC(=O)CCN4CCCC4)ccc23)cc1
- IC50 (second compound 0.0316 µM): > 10 µM
- IC50 (second compound 0.1 µM): > 10 µM
- IC50 (second compound 0.316 µM): > 10 µM
- IC50 (second compound 1 µM): > 10 µM
- IC50 (second compound 3.16 µM): > 10 µM
- IC50 (second compound 10 µM): > 10 µM
- viability, T/C [1]: 107%
- viability, T/C [2]: 109%
- viability, T/C [3]: 102%
- viability, T/C [4]: 104%
- viability, T/C [5]: 106%
- viability, T/C [6]: 112%
- viability, T/C [7]: 104%
- viability, T/C [8]: 95%
- viability, T/C [9]: 104%
- viability, T/C [10]: 94.6%
- viability, T/C [11]: 103%
- viability, T/C [12]: 110%
- viability, T/C [13]: 113%
- viability, T/C [14]: 113%
- viability, T/C [15]: 107%
- viability, T/C [16]: 102%
- viability, T/C [17]: 106%
- viability, T/C [18]: 108%
- viability, T/C [19]: 97.9%
- viability, T/C [20]: 106%
- viability, T/C [21]: 99.7%
- viability, T/C [22]: 107%
- viability, T/C [23]: 108%
- viability, T/C [24]: 107%
- viability, T/C [25]: 107%
- viability, T/C [26]: 90.9%
- viability, T/C [27]: 100%
- viability, T/C [28]: 98.5%
- viability, T/C [29]: 101%
- viability, T/C [30]: 100%
- viability, T/C [31]: 99.2%
- viability, T/C [32]: 89.7%
- viability, T/C [33]: 89.7%
- viability, T/C [34]: 92%
- viability, T/C [35]: 99.1%
- viability, T/C [36]: 90.6%
